From PubChem BioAssay AID588412 (NMMLSC, 2011)
The source made the active and inactive calls.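 How the source made its calls: active means fitted EC50 below about 63 µM, meaning a log molar EC50 under -4.2; inactive means the rest.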

Biological target: Integrin alpha-4 (Homo sapiens) (UniProt P13612)
Assay: VLA-4 ligand competition with LDV-FITC, dose response, orthogonal assay, U937 cells, flow cytometry, set 1 (AID 588412)
Conditions: flow cytometry MCF

Sequence of Integrin alpha-4 (Homo sapiens) (P13612 whole entry, looked up): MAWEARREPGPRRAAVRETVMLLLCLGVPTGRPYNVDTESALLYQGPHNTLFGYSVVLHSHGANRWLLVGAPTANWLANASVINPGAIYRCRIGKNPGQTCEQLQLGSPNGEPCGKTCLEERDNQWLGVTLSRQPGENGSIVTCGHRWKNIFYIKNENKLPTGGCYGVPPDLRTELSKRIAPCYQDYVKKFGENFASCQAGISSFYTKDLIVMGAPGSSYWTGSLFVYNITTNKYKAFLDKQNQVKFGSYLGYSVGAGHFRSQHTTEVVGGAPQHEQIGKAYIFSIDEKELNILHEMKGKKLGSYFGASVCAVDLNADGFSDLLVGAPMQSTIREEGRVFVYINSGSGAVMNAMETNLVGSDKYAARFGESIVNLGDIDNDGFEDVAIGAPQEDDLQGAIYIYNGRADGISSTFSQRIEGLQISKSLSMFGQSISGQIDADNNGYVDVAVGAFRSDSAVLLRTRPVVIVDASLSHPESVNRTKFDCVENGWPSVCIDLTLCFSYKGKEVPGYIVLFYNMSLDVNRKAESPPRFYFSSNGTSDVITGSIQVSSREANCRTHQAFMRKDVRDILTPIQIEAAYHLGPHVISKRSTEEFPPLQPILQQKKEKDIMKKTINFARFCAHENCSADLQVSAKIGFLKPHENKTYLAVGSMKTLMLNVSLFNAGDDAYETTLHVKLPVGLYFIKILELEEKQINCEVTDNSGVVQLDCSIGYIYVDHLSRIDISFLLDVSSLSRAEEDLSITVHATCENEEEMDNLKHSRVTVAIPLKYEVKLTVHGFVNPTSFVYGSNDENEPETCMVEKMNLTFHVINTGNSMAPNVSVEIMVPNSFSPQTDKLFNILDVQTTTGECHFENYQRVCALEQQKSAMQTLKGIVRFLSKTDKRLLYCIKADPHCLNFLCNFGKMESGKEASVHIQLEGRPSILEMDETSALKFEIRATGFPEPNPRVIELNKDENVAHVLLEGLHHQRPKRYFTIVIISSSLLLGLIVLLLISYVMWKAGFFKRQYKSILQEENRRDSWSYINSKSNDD

SMILES | EC50
COc1ccc(-c2sc3ccccc3c2-c2ccc(OCCN(C)C)cc2)cc1 | 16.3 µM
COc1cccc(-c2sc3ccccc3c2-c2ccc(OCCN(C)C)cc2)c1 | 24.5 µM
c1ccc2c(-c3ccc(OCCN4CCCCC4)cc3)c(-c3ccsc3)sc2c1 | inactive
CN(C)CCOc1ccc(-c2c(-c3ccccc3)sc3ccccc23)cc1 | 30.2 µM
c1ccc2c(-c3ccc(OCCN4CCCC4)cc3)c(-c3ccsc3)sc2c1 | 21 µM
c1ccc(-c2sc3ccccc3c2-c2ccc(OCCN3CCCC3)cc2)cc1 | 28.2 µM
COc1cccc(-c2sc3ccccc3c2-c2ccc(OCCN3CCCC3)cc2)c1 | 24.6 µM
